{"source": "patent US20230322717A1", "about": "“SOLID FORM OF PYRAZINE SUBSTITUTED NICOTINAMIDE, AND PREPARATION AND USE THEREOF” (Shenzhen TargetRx, Inc., priority 2020, published 2023)", "type_in_all_cases": "physicochemical", "key": {"[1]": {"assay": "Dissolution study of compound A tablets (solubilizer and glidant study)"}, "[2]": {"assay": "Dynamic moisture adsorption and desorption analysis (DVS)", "description": "The instrument model used for dynamic moisture adsorption and desorption analysis was IGA Sorp (Hidentity Isochema). The samples were measured in a gradient mode with a moisture range of 0% to 90%, wherein the humidity increment of each gradient was 10%."}, "[3]": {"assay": "Cooling crystallization: solubility of the crystal form I of compound A in heated solvents", "conditions": "organic solvent or mixture, thermodynamic from solid", "description": "About 30 mg of the crystal form I of compound A was added to different solvents and heated until dissolved. The resulting solution was then slowly cooled to room temperature. PLM and XRPD tests were performed on the resulting solid crystal forms."}, "[4]": {"assay": "Solubility study of the starting material (the crystal form I of compound A) in different solvents", "conditions": "in tetrahydrofuran, acetone, 2-butanone, acetonitrile and ethyl acetate", "description": "About 2 mg of the starting material was weighed and added into a sample bottle, and different solvents were added respectively, until the starting material was dissolved."}, "[5]": {"assay": "Stability study of the crystal form I of compound A and the crystal form I of compound A p-toluenesulfonate (HPLC, XRPD)", "conditions": "7 days at 40° C./75% RH and 60° C.", "description": "A certain amount of samples of the crystal form I of compound A and the crystal form I of compound A p-toluenesulfonate (Batch No.: PTSA-A1) were placed in a stability test chamber, and kept at 40° C./75%RH and 60° C. for 7 days, respectively. The samples were tested by HPLC and XRPD at various time points."}, "[6]": {"assay": "Solubility study in SGF, FaSSIF and FeSSIF (HPLC of filtrate, XRPD of solid)", "description": "The solubilities of the crystal form I of compound A and the crystal form I of compound A p-toluenesulfonate in SGF (simulated gastric fluid), FaSSIF (fasted state simulated intestinal fluid) and FeSSIF (fed state simulated intestinal fluid) were studied.\nThe solubilities of samples in SGF, FaSSIF and FeSSIF at 37° C. for 24 hours were determined. 40 mg of the sample was placed in a sample bottle, and 1.5 mL of solvent was added. The mixture was mixed well, and shaken on a shaker at 200 rpm for 24 hours. The suspension was filtered at 0.5, 2 and 24 hours. The filtrate was analyzed by HPLC, and the solid was tested by XRPD."}, "[7]": {"assay": "Heating of the crystal form by DSC (solvent removal)", "conditions": "heated to 150° C. by DSC", "description": "The instrument model for differential scanning calorimetry analysis was DSC Q200 or Discovery DSC 250 (TA, USA). Samples were accurately weighed and placed in a punctured sample pot for DSC, and the exact mass of the sample was recorded. The samples were heated to the final temperature (e.g. 300° C. or 350° C.) at a ramp rate of 10° C./min.\nThe collected crystal form I of compound A was subjected to DSC analysis by General method 4. […] The crystal form I of compound A was heated to 150° C. by DSC and then the solvent was removed."}, "[8]": {"assay": "Grinding research of crystal forms (XRPD before and after grinding)", "conditions": "ground in a mortar at room temperature", "description": "The solid XRPDs before and after grinding were compared."}, "[9]": {"assay": "Stability study of the crystal form VI of compound A (high temperature, high humidity, light)"}}}
{"smiles": "O=C(Nc1ccc(OC(F)(F)Cl)cc1)c1cnc(N2CC[C@@H](F)C2)c(-c2cnccn2)c1", "note": "[compound A, (R)-N-(4-(chlorodifluoromethoxy)phenyl)-6-(3-fluoropyrrolidin-1-yl)-5-(pyrazin-2-yl)nicotinamide]", "values": [{"measurement": "dissolution of compound A in the formulation", "setting": "[1]; colloidal silica 200 (glidant) added", "result": "improved"}, {"measurement": "dissolution of compound A in the formulation", "setting": "[1]; increasing amount of sodium lauryl sulfate (solubilizer)", "result": "decreased"}]}
{"smiles": "O=C(Nc1ccc(OC(F)(F)Cl)cc1)c1cnc(N2CC[C@@H](F)C2)c(-c2cnccn2)c1", "note": "[crystal form I of compound A, (R)-N-(4-(chlorodifluoromethoxy)phenyl)-6-(3-fluoropyrrolidin-1-yl)-5-(pyrazin-2-yl)nicotinamide]", "values": [{"measurement": "water absorption", "setting": "[2]; 0-60%RH", "result": "about 0.2%"}, {"measurement": "water absorption", "setting": "[2]; 0-80%RH", "result": "about 0.7%"}, {"measurement": "water absorption", "setting": "[2]; 0-90%RH", "result": "about 1.3%"}, {"measurement": "hygroscopicity (DVS)", "setting": "[2]; moisture range 0% to 90%", "result": "slightly hygroscopic"}, {"measurement": "Solubility", "setting": "[3]; ACN, became clear at 50° C.", "result": 298, "unit": "mg/mL"}, {"measurement": "Solubility", "setting": "[3]; Acetone, became clear at 50° C.", "result": 150, "unit": "mg/mL"}, {"measurement": "Solubility", "setting": "[3]; Isobutanol, became clear at 70° C.", "result": 10.1, "unit": "mg/mL"}, {"measurement": "Solubility", "setting": "[3]; MeOH, became clear at 50° C.", "result": 34.1, "unit": "mg/mL"}, {"measurement": "solubility in solvents (in words)", "setting": "[4]", "result": "good solubility"}, {"measurement": "crystal form stability (XRPD)", "setting": "[5]", "result": "remained unchanged"}, {"measurement": "solubility compared with the other form", "setting": "[6]; FeSSIF vehicle, 0.5 and 2 hours, 37° C.", "result": "higher solubility than that of the p-toluenesulfonate"}, {"measurement": "crystal form of the undissolved solid (XRPD)", "setting": "[6]; SGF, FaSSIF and FeSSIF for 2 hours", "result": "changed"}, {"measurement": "dependence of solubility on pH", "setting": "[6]; SGF, FaSSIF, FeSSIF, 37° C.", "result": "affected by pH value"}, {"measurement": "crystal form after heating and solvent removal", "setting": "[7]", "result": "changed into the crystal form VI"}]}
{"smiles": "O=C(Nc1ccc(OC(F)(F)Cl)cc1)c1cnc(N2CC[C@@H](F)C2)c(-c2cnccn2)c1", "note": "[crystal form III of compound A, (R)-N-(4-(chlorodifluoromethoxy)phenyl)-6-(3-fluoropyrrolidin-1-yl)-5-(pyrazin-2-yl)nicotinamide]", "values": [{"measurement": "solid form / crystallinity after grinding (XRPD)", "setting": "[8]; listed as crystal form III", "result": "transformed into amorphous forms"}]}
{"smiles": "O=C(Nc1ccc(OC(F)(F)Cl)cc1)c1cnc(N2CC[C@@H](F)C2)c(-c2cnccn2)c1", "note": "[crystal form VI of compound A, (R)-N-(4-(chlorodifluoromethoxy)phenyl)-6-(3-fluoropyrrolidin-1-yl)-5-(pyrazin-2-yl)nicotinamide]", "values": [{"measurement": "water absorption", "setting": "[2]; 0-80%RH", "result": 1.1852, "unit": "%"}, {"measurement": "water absorption", "setting": "[2]; 0-90%RH", "result": 1.7452, "unit": "%"}, {"measurement": "water absorption", "setting": "[2]; 10%RH", "result": 0.1389, "unit": "%"}, {"measurement": "crystal form after DVS test (XRPD)", "setting": "[2]; before and after DVS test", "result": "not changed"}, {"measurement": "solid form / crystallinity after grinding (XRPD)", "setting": "[8]", "result": "slightly decreased"}, {"measurement": "stability (appearance, crystal form and related substances)", "setting": "[9]; 10 days under the condition of light", "result": "stable"}, {"measurement": "stability (appearance, crystal form and related substances)", "setting": "[9]; 30 days, 60° C., 25° C./92.5%RH, 40° C./75%RH, and light (visible 4500 Lux, near-UV 85µw/cm^2)", "result": "stable"}, {"measurement": "crystal form after stability test (XRPD)", "setting": "[9]; high temperature, high humidity, high temperature and high humidity, light", "result": "not changed"}]}
{"smiles": "O=C(Nc1ccc(OC(F)(F)Cl)cc1)c1cnc(N2CC[C@@H](F)C2)c(-c2cnccn2)c1", "note": "[crystal form VII of compound A, (R)-N-(4-(chlorodifluoromethoxy)phenyl)-6-(3-fluoropyrrolidin-1-yl)-5-(pyrazin-2-yl)nicotinamide]", "values": [{"measurement": "solid form / crystallinity after grinding (XRPD)", "setting": "[8]; listed as crystal form VII", "result": "transformed into amorphous forms"}]}
